Our source for the speed of sound and mass density values is the NIST ThermoML archive (doi:10.1016/j.fluid.2012.08.002).

The conditions of this data set: 101.33 kPa, Liquid; for speed of sound: Sing-around technique in a fixed-path interferometer; for mass density: Vibrating tube method.

Each structure is given as a SMILES string. ± gives the expanded uncertainty stated by the source.

As a reminder, the speed of sound is how fast a sound wave travels through the sample. What is called mass density is the mass of a sample divided by its volume. As for `CCCCCCn1cc[n+](C)c1.F[P-](F)(F)(F)(F)F` [1-hexyl-3-methylimidazolium hexafluorophosphate], the speed of sound by setting is: (288.15 K) 1449.1 ± 1.2 m/s; (293.15 K) 1434.1 ± 1.2 m/s; (298.15 K) 1420.3 ± 1.2 m/s; (303.15 K) 1407.3 ± 1.2 m/s; (308.15 K) 1394.9 ± 1.2 m/s; (313.15 K) 1383 ± 1.2 m/s. Besides, the speed of sound (318.15 K) came out at 1371.5 ± 1.2 m/s. The mass density runs as follows: (288.15 K) 1302.74 ± 0.49 kg/m3; (293.15 K) 1298.71 ± 0.48 kg/m3; (298.15 K) 1294.69 ± 0.48 kg/m3; (303.15 K) 1290.66 ± 0.48 kg/m3; (308.15 K) 1286.64 ± 0.47 kg/m3; (313.15 K) 1282.63 ± 0.47 kg/m3. Moreover, the mass density (318.15 K) is listed as 1278.72 ± 0.47 kg/m3.

Turning to `CCCCCCn1cc[n+](C)c1.F[B-](F)(F)F` [1-hexyl-3-methylimidazolium tetrafluoroborate], the speed of sound is, setting by setting: (288.15 K) 1548.8 ± 1.2 m/s; (293.15 K) 1535 ± 1.2 m/s; (298.15 K) 1521.9 ± 1.2 m/s; (303.15 K) 1509.2 ± 1.2 m/s; (308.15 K) 1497 ± 1.2 m/s; (313.15 K) 1485 ± 1.2 m/s. The speed of sound (318.15 K) was 1473.3 ± 1.2 m/s. The mass density amounted to 1155.32 ± 0.36 kg/m3 (288.15 K); 1151.79 ± 0.35 kg/m3 (293.15 K); 1148.26 ± 0.35 kg/m3 (298.15 K); 1144.74 ± 0.35 kg/m3 (303.15 K); 1141.23 ± 0.34 kg/m3 (308.15 K); 1137.83 ± 0.34 kg/m3 (313.15 K). For the same compound, the mass density (318.15 K) is given as 1134.43 ± 0.34 kg/m3.

On to `COCCO` [2-methoxyethan-1-ol], for which the speed of sound was 1376.5 ± 0.85 m/s (288.15 K); 1359 ± 0.85 m/s (293.15 K); 1341.7 ± 0.84 m/s (298.15 K); 1324.5 ± 0.84 m/s (303.15 K); 1307.1 ± 0.83 m/s (308.15 K); 1290 ± 0.83 m/s (313.15 K). Moreover, the speed of sound (318.15 K) is given as 1272.8 ± 0.82 m/s. Further, the mass density (288.15 K) is recorded as 969.374 ± 0.091 kg/m3; the mass density (293.15 K) came to 964.809 ± 0.092 kg/m3; the mass density (298.15 K) worked out at 960.222 ± 0.094 kg/m3; the mass density (303.15 K) is recorded as 955.615 ± 0.095 kg/m3; the mass density (308.15 K) is recorded as 950.971 ± 0.097 kg/m3; the mass density (313.15 K) was 946.306 ± 0.098 kg/m3. In addition, for the setting “318.15 K”, the mass density was found to be 941.609 ± 0.099 kg/m3.

Take `CCCCCCn1cc[n+](C)c1.[Br-]` [3-hexyl-1-methyl-1H-imidazolium bromide]: the speed of sound stood at 1639.8 ± 1.3 m/s (288.15 K); 1610.6 ± 1.3 m/s (293.15 K); 1587.5 ± 1.3 m/s (298.15 K); 1568.1 ± 1.3 m/s (303.15 K); 1551.2 ± 1.3 m/s (308.15 K); 1533.5 ± 1.2 m/s (313.15 K). Also, the speed of sound (318.15 K) worked out at 1517.8 ± 1.2 m/s. For the same compound, the mass density reads like this: (288.15 K) 1231.03 ± 0.42 kg/m3; (293.15 K) 1227.49 ± 0.42 kg/m3; (298.15 K) 1223.82 ± 0.42 kg/m3; (303.15 K) 1220.47 ± 0.41 kg/m3; (308.15 K) 1216.79 ± 0.41 kg/m3; (313.15 K) 1213.28 ± 0.41 kg/m3. Besides, the mass density (318.15 K) amounted to 1209.94 ± 0.4 kg/m3.
